These results are taken from patent US12065436B2, “Cardiac sarcomere inhibitors” (Cytokinetics, Inc., priority 2018, dated 2024).

pIC50: −log10 of the molar value.

The target of the test is bovine cardiac myofibrils (full-length cardiac myosin ATPase in the native sarcomere) (Bos taurus (Bovine), UniProt Q9BE39). As to the kind of experiment: Skinned bovine cardiac myofibril ATPase assay (PK/LDH-coupled). The class given is biochemical. To be noted: Ca2+ activating to 75% of maximal rate; for CDMF75 IC15: concentration giving 15% inhibition; for pIC50: read-out: CDMF75 IC50. The method, boiled down:
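Triton-skinned bovine left-ventricle myofibrils (1 mg/mL) in PM 12 buffer (12 mM PIPES, 2 mM MgCl2, pH 6.8) with 50 μM ATP, 0.6 mM EGTA and CaCl2 set for 50% or 75% activation. Steady-state ATPase inhibition followed by PK/LDH-coupled NADH oxidation at 340 nm.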

bovine cardiac myofibrils (full-length cardiac myosin ATPase in the native sarcomere), sequence (Q9BE39 whole entry): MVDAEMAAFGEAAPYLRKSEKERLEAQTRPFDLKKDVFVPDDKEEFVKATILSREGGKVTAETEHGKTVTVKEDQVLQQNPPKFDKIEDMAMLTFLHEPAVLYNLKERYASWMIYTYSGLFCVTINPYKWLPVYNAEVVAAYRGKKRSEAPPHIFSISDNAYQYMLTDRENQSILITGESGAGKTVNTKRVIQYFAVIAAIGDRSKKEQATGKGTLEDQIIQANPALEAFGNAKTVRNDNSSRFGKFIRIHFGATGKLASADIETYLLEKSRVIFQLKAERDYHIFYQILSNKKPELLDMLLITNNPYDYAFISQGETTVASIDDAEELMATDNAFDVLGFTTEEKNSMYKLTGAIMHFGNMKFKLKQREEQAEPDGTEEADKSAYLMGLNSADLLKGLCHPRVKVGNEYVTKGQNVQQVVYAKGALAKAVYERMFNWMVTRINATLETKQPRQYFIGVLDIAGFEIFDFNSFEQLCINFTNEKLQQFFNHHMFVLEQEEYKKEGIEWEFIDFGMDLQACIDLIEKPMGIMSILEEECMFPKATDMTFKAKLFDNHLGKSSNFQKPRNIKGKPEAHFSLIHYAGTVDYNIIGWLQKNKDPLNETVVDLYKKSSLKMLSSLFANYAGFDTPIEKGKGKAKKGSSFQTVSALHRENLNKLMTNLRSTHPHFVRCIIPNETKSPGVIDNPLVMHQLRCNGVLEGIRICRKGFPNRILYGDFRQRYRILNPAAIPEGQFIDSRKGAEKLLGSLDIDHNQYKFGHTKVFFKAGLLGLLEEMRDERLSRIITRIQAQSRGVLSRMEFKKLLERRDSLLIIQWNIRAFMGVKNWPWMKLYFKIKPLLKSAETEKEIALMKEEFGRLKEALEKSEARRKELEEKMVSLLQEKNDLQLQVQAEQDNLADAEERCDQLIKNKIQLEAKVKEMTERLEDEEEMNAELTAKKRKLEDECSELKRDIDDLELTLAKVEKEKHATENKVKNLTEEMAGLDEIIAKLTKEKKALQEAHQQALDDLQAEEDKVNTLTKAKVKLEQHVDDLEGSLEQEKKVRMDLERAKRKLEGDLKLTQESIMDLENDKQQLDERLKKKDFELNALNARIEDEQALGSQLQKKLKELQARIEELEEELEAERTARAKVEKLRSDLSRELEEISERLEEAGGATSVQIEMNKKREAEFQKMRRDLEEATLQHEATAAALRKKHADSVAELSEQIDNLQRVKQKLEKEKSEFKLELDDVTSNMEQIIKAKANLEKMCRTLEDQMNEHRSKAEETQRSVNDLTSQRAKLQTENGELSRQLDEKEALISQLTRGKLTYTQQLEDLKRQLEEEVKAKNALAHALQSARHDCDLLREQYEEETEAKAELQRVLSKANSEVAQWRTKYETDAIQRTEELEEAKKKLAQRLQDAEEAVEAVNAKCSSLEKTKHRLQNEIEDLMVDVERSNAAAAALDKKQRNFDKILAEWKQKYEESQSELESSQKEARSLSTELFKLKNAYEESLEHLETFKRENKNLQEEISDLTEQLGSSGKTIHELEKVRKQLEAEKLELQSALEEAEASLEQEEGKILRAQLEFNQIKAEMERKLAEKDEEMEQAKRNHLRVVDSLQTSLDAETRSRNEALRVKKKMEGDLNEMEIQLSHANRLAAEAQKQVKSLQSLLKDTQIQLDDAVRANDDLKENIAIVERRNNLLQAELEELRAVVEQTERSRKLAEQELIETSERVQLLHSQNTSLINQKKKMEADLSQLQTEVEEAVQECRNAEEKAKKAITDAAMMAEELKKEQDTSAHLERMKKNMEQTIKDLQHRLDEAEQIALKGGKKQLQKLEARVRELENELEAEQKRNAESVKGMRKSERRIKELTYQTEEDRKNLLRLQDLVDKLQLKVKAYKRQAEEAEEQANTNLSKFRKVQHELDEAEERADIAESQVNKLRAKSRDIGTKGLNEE
bovine cardiac myofibrils (full-length cardiac myosin ATPase in the native sarcomere), sequence (P85100 whole entry partner): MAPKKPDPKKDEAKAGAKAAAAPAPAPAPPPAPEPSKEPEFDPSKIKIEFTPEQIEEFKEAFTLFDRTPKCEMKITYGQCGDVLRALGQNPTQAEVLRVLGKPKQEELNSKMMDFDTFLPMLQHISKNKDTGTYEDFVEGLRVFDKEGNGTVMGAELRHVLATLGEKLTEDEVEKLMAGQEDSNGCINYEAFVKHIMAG
bovine cardiac myofibrils (full-length cardiac myosin ATPase in the native sarcomere), sequence (Q3SZE5 whole entry partner): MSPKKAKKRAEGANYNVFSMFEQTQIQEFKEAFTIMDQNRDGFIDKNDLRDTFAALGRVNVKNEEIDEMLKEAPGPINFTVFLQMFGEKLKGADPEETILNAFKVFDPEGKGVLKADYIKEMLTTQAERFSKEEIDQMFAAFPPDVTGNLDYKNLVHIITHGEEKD

A word on the pIC50: it is the negative decadic logarithm of the IC50, by convention in mol/L. As for `Cc1nc(-c2ccc3c(c2)CC[C@H]3NC(=O)c2oc(C)nc2C)no1` [Compound 112, (R)-2,4-dimethyl-N-(5-(5-methyl-1,2,4-oxadiazol-3-yl)-2,3-dihydro-1H-inden-1-yl)oxazole-5-carboxamide], the “CDMF75 IC15” value worked out at 1.5 µM and the pIC50 is 5.28.
The corresponding values for `COC(C)c1nc(-c2ccc3c(c2)CC[C@H]3NC(=O)c2cnn(C)c2)no1` (stereo partly drawn) [Compound 551, N-((1R)-5-(5-(1-methoxyethyl)-1,2,4-oxadiazol-3-yl)-2,3-dihydro-1H-inden-1-yl)-1-methyl-1H-pyrazole-4-carboxamide] are 3.6 µM and 4.84.
The corresponding values for `Cc1nc(-c2ccc3c(c2)CC[C@H]3NC(=O)c2ccnn2C)no1` [Compound 107, (R)-1-methyl-N-(5-(5-methyl-1,2,4-oxadiazol-3-yl)-2,3-dihydro-1H-inden-1-yl)-1H-pyrazole-5-carboxamide] are 0.5 µM and 5.77.
The matching figures for `Cn1nccc1C(=O)NC1COc2cc(-c3noc(C(F)F)n3)ccc21` (stereo not shown) [Compound 123, N-(6-(5-(difluoromethyl)-1,2,4-oxadiazol-3-yl)-2,3-dihydrobenzofuran-3-yl)-1-methyl-1H-pyrazole-5-carboxamide]: 0.5 µM and 5.77.
As for `CCc1nc(-c2ccc3c(c2)CCC[C@@H]3NC(=O)c2cnn(C)c2)no1` [Compound 516, (S)-N-(6-(5-ethyl-1,2,4-oxadiazol-3-yl)-1,2,3,4-tetrahydronaphthalen-1-yl)-1-methyl-1H-pyrazole-4-carboxamide], the “CDMF75 IC15” value came to 39.2 µM and the pIC50 is 4.41.
The corresponding values for `Cc1ncoc1C(=O)N[C@@H]1CCc2cc(-c3noc(C4CC4)n3)ccc21` [Compound 390, (R)-N-(5-(5-cyclopropyl-1,2,4-oxadiazol-3-yl)-2,3-dihydro-1H-inden-1-yl)-4-methyloxazole-5-carboxamide] are 0.4 µM and 6.00.
The corresponding values for `Cc1nc(-c2ccc3c(c2)OCC3NC(=O)c2cnc(C)o2)no1` (stereo not shown) [Compound 166, 2-methyl-N-(6-(5-methyl-1,2,4-oxadiazol-3-yl)-2,3-dihydrobenzofuran-3-yl)oxazole-5-carboxamide] are 2.0 µM and 5.15.
The corresponding values for `O=C(N[C@@H]1COc2cc(-c3noc(C(F)F)n3)ccc21)C(F)F` [Compound 441, (S)-N-(6-(5-(difluoromethyl)-1,2,4-oxadiazol-3-yl)-2,3-dihydrobenzofuran-3-yl)-2,2-difluoroacetamide] are 3.4 µM and 4.86.
On to `O=C(N[C@@H]1COc2cc(-c3noc(C(F)F)n3)ccc21)c1cc(CO)ccn1` [Compound 707, (S)-N-(6-(5-(difluoromethyl)-1,2,4-oxadiazol-3-yl)-2,3-dihydrobenzofuran-3-yl)-4-(hydroxymethyl)picolinamide], for which the “CDMF75 IC15” value turned out to be 0.9 µM and the pIC50 is 5.44.
The corresponding values for `Cc1nocc1C(=O)NC1CCc2cc(-c3noc(C(F)F)n3)ccc21` (stereo not shown) [Compound 129, N-(5-(5-(difluoromethyl)-1,2,4-oxadiazol-3-yl)-2,3-dihydro-1H-inden-1-yl)-3-methylisoxazole-4-carboxamide] are 0.5 µM and 5.82.
The corresponding values for `CCc1nc(-c2cc(F)c3c(c2)CC[C@H]3NC(=O)c2cnn(C)c2)no1` [Compound 554, (R)-N-(5-(5-ethyl-1,2,4-oxadiazol-3-yl)-7-fluoro-2,3-dihydro-1H-inden-1-yl)-1-methyl-1H-pyrazole-4-carboxamide] are 0.4 µM and 5.82.
The corresponding values for `O=C(N[C@@H]1CCc2cc(-c3noc(C4CC4)n3)ccc21)c1cnn(CCO)c1` [Compound 521, (R)-N-(5-(5-cyclopropyl-1,2,4-oxadiazol-3-yl)-2,3-dihydro-1H-inden-1-yl)-1-(2-hydroxyethyl)-1H-pyrazole-4-carboxamide] are 1.2 µM and 5.30.
`[2H]C([2H])([2H])c1nc(-c2ccc3c(c2)CC[C@H]3NC(=O)c2ccnn2C)no1` [Compound 242, (R)-1-methyl-N-(5-(5-(methyl-d3)-1,2,4-oxadiazol-3-yl)-2,3-dihydro-1H-inden-1-yl)-1H-pyrazole-5-carboxamide]: the “CDMF75 IC15” value amounted to 0.5 µM and the pIC50 was 5.82.
Turning to `[2H]C([2H])([2H])C(=O)N[C@@H]1COc2cc(-c3noc(C(F)F)n3)ccc21` [Compound 447, (S)-N-(6-(5-(difluoromethyl)-1,2,4-oxadiazol-3-yl)-2,3-dihydrobenzofuran-3-yl)acetamide-2,2,2-d3], the “CDMF75 IC15” value stood at 1.8 µM and the pIC50 was 5.03.
The corresponding values for `O=C(NC1CCc2cc(-c3noc(C(F)F)n3)ccc21)c1cn[nH]c1` (stereo not shown) [Compound 50, N-(5-(5-(difluoromethyl)-1,2,4-oxadiazol-3-yl)-2,3-dihydro-1H-inden-1-yl)-1H-pyrazole-4-carboxamide] are 1.5 µM and 5.28.
The corresponding values for `C=Cn1cc(C(=O)N[C@@H]2CCc3cc(-c4noc(CC)n4)ccc32)cn1` [Compound 527, (R)-N-(5-(5-ethyl-1,2,4-oxadiazol-3-yl)-2,3-dihydro-1H-inden-1-yl)-1-vinyl-1H-pyrazole-4-carboxamide] are 0.3 µM and 5.96.
The corresponding values for `Cc1nc(-c2ccc3c(c2)CC[C@H]3NC(=O)c2cn[nH]c2)no1` [Compound 487, (R)-N-(5-(5-methyl-1,2,4-oxadiazol-3-yl)-2,3-dihydro-1H-inden-1-yl)-1H-pyrazole-4-carboxamide] are 0.9 µM and 5.47.
Take `Cc1noc(C(=O)NC2CCc3cc(-c4noc(C(F)F)n4)ccc32)n1` (stereo not shown) [Compound 127, N-(5-(5-(difluoromethyl)-1,2,4-oxadiazol-3-yl)-2,3-dihydro-1H-inden-1-yl)-3-methyl-1,2,4-oxadiazole-5-carboxamide]: the “CDMF75 IC15” value came to 1.7 µM and the pIC50 is 5.11.
The corresponding values for `Cc1nn(C)cc1C(=O)NC1CCc2cc(-c3noc(C(C)C)n3)ccc21` (stereo not shown) [Compound 75, N-(5-(5-isopropyl-1,2,4-oxadiazol-3-yl)-2,3-dihydro-1H-inden-1-yl)-1,3-dimethyl-1H-pyrazole-4-carboxamide] are 0.9 µM and 5.51.
The corresponding values for `Cc1nc(-c2ccc3c(c2)CC[C@H]3NC(=O)c2cc(C(F)F)ccn2)no1` [Compound 732, (R)-4-(difluoromethyl)-N-(5-(5-methyl-1,2,4-oxadiazol-3-yl)-2,3-dihydro-1H-inden-1-yl)picolinamide] are 0.7 µM and 5.47.
The matching figures for `Cc1nc(-c2ccc3c(c2)OC[C@H]3NC(=O)c2oc(C)nc2C)no1` [Compound 161, (S)-2,4-dimethyl-N-(6-(5-methyl-1,2,4-oxadiazol-3-yl)-2,3-dihydrobenzofuran-3-yl)oxazole-5-carboxamide]: 1.1 µM and 5.36.
With `Cn1nccc1C(=O)NC1COc2cc(-c3noc(C4CC4)n3)ccc21` (stereo not shown) [Compound 221, N-(6-(5-cyclopropyl-1,2,4-oxadiazol-3-yl)-2,3-dihydrobenzofuran-3-yl)-1-methyl-1H-pyrazole-5-carboxamide], the “CDMF75 IC15” value was 0.6 µM and the pIC50 was 5.70.
The matching figures for `CCc1nc(-c2ccc3c(c2)OC[C@H]3NC(=O)NCCO)no1` [Compound 745, (S)-1-(6-(5-ethyl-1,2,4-oxadiazol-3-yl)-2,3-dihydrobenzofuran-3-yl)-3-(2-hydroxyethyl)urea]: 0.8 µM and 5.42.
Regarding `Cc1nn(C)cc1C(=O)N[C@@H]1CCc2cc(-c3nc(C(F)F)no3)ccc21` [Compound 214, (R)-N-(5-(3-(difluoromethyl)-1,2,4-oxadiazol-5-yl)-2,3-dihydro-1H-inden-1-yl)-1,3-dimethyl-1H-pyrazole-4-carboxamide], the “CDMF75 IC15” value stood at 1.3 µM and the pIC50 is 5.31.
In the case of `CCc1nc(-c2ccc3c(c2)CC[C@H]3NC(=O)[C@H]2CCNC(=O)C2)no1` [Compound 355, (S)-N-((R)-5-(5-ethyl-1,2,4-oxadiazol-3-yl)-2,3-dihydro-1H-inden-1-yl)-2-oxopiperidine-4-carboxamide], the “CDMF75 IC15” value was 2.9 µM and the pIC50 was 4.96.
The matching figures for `CCc1nc(-c2ccc3c(c2)CC[C@H]3NC(=O)c2coc(C)n2)no1` [Compound 561, (R)-N-(5-(5-ethyl-1,2,4-oxadiazol-3-yl)-2,3-dihydro-1H-inden-1-yl)-2-methyloxazole-4-carboxamide]: 1.4 µM and 5.15.
The matching figures for `Cc1noc(-c2ccc3c(c2)CC[C@H]3NC(=O)c2cnn(C)c2C)n1` [Compound 264, (R)-1,5-dimethyl-N-(5-(3-methyl-1,2,4-oxadiazol-5-yl)-2,3-dihydro-1H-inden-1-yl)-1H-pyrazole-4-carboxamide]: 1.8 µM and 5.18.
The corresponding values for `CCc1nc(-c2ccc3c(c2)CC[C@H]3NC(=O)c2cnn(C3CN(C(C)=O)C3)c2)no1` [Compound 477, (R)-1-(1-acetylazetidin-3-yl)-N-(5-(5-ethyl-1,2,4-oxadiazol-3-yl)-2,3-dihydro-1H-inden-1-yl)-1H-pyrazole-4-carboxamide] are 8.5 µM and 4.41.
As for `Cc1c(C(=O)N[C@@H]2COc3cc(-c4noc(C(F)F)n4)ccc32)cnn1C` [Compound 210, (S)-N-(6-(5-(difluoromethyl)-1,2,4-oxadiazol-3-yl)-2,3-dihydrobenzofuran-3-yl)-1,5-dimethyl-1H-pyrazole-4-carboxamide], the “CDMF75 IC15” value turned out to be 0.5 µM and the pIC50 was 5.80.
